Where a name gives a salt, the structure may show the parent alone. Read-outs that look alike come from different tables or passages of the source.

Series [1] concerns anesthetized rabbits. Nature of the series: clofilium-induced Torsades de Pointes in methoxamine-treated anesthetized rabbits. The series is classed as in vivo, rabbit. As to the method: Spontaneous TdP was induced with methoxamine (α1-adrenoceptor agonist) followed by clofilium (Ikr blocker) in anesthetized rabbits as previously described by Carlsson et al (J. Cardiovas. Pharmacol 1990; 16:276-285). RAN was given via intravenous (iv) infusion 10 min prior to clofilium. Arterial pressure (BP), lead II ECG and endocardial Monophasic Action Potential (MAP) were recorded. QT interval was corrected for heart rate by using a formula developed for rabbits: QTc=QT−0.175*(RR−300).

Series [2] relates to female rabbit hearts. Nature of the series: female rabbit isolated hearts paced at 1 Hz: monophasic action potentials and 12-lead ECG.
Series [3] relates to IKr. The following applies: cited from earlier work.
Series [4] deals with transient outward K+ current (Ito). The following applies: cited from earlier work.
In series [5] the test system is inward rectifier K+ current (IKI). The following applies: cited from earlier work.
The test system of series [6] is slow component of the delayed rectifier K+ current. The following applies: at 30 μM; cited from earlier work.
Series [7] concerns rabbit and guinea-pig isolated hearts and canine ventricular myocytes. Particulars: cited from earlier work.
For series [8] the following is noted: cited from earlier work.
In series [9] the target is HERG channels expressed in HEK293 cells (Homo sapiens, UniProt Q12809). The following applies: for time constant for development of block of IHERG: human. From the text: Human-ether-a-go-go related gene (HERG) encodes the cardiac rapidly activating delayed rectifier K^+ current (IKr). Inhibition of HERG K^+ current (IHERG) is a mechanism for drug-induced long QT syndrome.

The mark [10] stands for this setting: iv infusion 10 min prior to clofilium, n=6.
Setting [11] is: ranolazine 10 μM in the presence of 60 nM E-4031, n=9, p<0.01.

Chain of HERG channels expressed in HEK293 cells (Q12809 whole entry): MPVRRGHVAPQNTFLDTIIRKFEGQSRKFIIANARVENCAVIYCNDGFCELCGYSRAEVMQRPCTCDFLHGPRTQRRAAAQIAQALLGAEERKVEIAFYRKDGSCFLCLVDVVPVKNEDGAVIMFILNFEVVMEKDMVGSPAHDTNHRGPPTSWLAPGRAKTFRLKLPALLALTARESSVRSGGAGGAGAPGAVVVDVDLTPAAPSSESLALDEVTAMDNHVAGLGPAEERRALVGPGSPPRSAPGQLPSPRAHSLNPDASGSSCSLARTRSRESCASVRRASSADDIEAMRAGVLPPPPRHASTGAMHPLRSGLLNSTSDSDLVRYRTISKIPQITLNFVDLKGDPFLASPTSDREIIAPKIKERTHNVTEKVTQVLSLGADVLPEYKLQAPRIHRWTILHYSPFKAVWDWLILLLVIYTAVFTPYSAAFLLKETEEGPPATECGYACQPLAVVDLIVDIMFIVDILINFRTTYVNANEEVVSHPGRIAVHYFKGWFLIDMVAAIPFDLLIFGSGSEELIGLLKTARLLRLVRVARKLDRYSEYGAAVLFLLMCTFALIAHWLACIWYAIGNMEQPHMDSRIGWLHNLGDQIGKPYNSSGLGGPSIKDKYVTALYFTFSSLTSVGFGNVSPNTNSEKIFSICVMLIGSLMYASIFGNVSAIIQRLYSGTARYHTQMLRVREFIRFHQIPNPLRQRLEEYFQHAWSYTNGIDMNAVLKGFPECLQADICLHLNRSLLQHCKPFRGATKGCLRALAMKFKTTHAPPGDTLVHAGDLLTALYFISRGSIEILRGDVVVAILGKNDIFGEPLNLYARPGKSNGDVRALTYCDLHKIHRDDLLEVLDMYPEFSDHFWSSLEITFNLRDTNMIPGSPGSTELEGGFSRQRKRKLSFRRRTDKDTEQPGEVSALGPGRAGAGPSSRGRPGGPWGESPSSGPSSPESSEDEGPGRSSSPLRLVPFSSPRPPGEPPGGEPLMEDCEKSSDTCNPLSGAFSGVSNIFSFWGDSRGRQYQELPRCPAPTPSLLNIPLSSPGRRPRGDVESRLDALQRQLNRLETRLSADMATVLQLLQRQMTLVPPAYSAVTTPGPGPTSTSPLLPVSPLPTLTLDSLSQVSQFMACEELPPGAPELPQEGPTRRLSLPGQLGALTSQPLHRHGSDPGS

For `CCCCCCC[N+](CC)(CC)CCCCc1ccc(Cl)cc1.[Br-]` [Clofilium, 4-chloro-N,N-diethyl-N-heptyl benzenebutanaminium bromide], the “rabbits with TdP” value in series [1] (clofilium after methoxamine, rabbits with TdP/rabbits) is on record as 6/6. The molecule further returned an MAPD90 after clofilium in series [1] (from 123±6 ms, n=6, P<0.05) of 201 ± 21 ms. The molecule further came in with a QTc after clofilium in [1] (from 130±4 ms, n=6, P<0.05) of 200 ± 18 ms.
For the molecule `Cc1cccc(CCN2CCC(C(=O)c3ccc(NS(C)(=O)=O)cc3)CC2)n1` [E-4031, N-(4-[(1-[2-(6-methyl-2-pyridyl)ethyl]-4-piperidylcarbonyl]phenyl)methanesulfonamidedihydrochloride dehydrate], in [2], the “epicardial MAPD90 with drug” value stood at 254 ± 6 ms, the “increase of transmural MAPD dispersion” value was determined as 74 ± 7 ms, the “prolongation of duration of epicardial MAP (MAPD90)” value is 75 ± 5 ms and the “transmural MAPD dispersion with drug” value was 90 ± 10 ms.
Regarding `NC1=N[C@H](O)[C@H]2[C@H]3O[C@]4(O)O[C@@H]([C@@H](O)[C@@]2(N1)[C@@H]4O)[C@]3(O)CO` [TTX, Tetrodotoxin], in series [2], the “changes in the QRS interval” value is listed as “no or minimal changes”, the “decrease of transmural dispersion” value is 47 ± 11 ms, the “effect on MAPD90” value is “no effects” and the “effect on transmural dispersion of MAPD90” value is given as “no effects”. Besides, the “shortening of MAPD” value in series [2] was determined as 33 ± 8 ms.
As to `COc1ccccc1OCC(O)CN1CCN(CC(=O)Nc2c(C)cccc2C)CC1` (stereo not shown) [ranolazine, N-(2,6-dimethylphenyl)-4-[2-hydroxy-3-(2-methoxyphenoxy)propyl]-1-piperazineacetamide], the “occurrence of TdP” value in series [1] (RAN at 25 μM, P<0.005 vs vehicle control) is given as 0/6. This molecule also displayed a QRS interval in series [1] (RAN at 25 μM, from 32±1 ms, n=5, P>0.05) of 33 ± 1 ms. This molecule also returned a PR interval in series [1] (RAN at 25 μM, from 79±2 ms, n=5, P>0.05) of 77 ± 1 ms. The heart rate in series [1] (RAN at 25 μM, from 186±9 bpm, n=5, P>0.05) is recorded as 204±10 bpm. Further, in [1] (setting [10]), the “ED50 for suppression of clofilium-induced MAPD90 prolongation” value was determined as 15 µM, the “ED50 for suppression of clofilium-induced QTc prolongation” value was found to be 10 µM and the “ED50 for suppression of clofilium-induced TdP” value was found to be 10 µM. Further, the “effect on IKr” value in series [3] was “inhibit”. Moreover, the “effect on Ito” value in series [4] is “no effect”. For the same molecule, in series [2], the “changes in the QRS interval” value is given as “no or minimal changes”. Also, the “effect on spontaneous and pause-triggered episodes of TdP induced by 60 nM E-4031” value in series [2] (ranolazine 10 μM) was “abolished”. In [2] (setting [11]), the “decrease of transmural dispersion” value was 40 ± 9 ms and the “shortening of MAPD90” value was determined as 19 ± 5 ms. The “effect on transmural dispersion of MAPD90” value in series [2] (ranolazine 5-30 μM alone) is listed as “without increasing”. In addition, the “prolongation of epicardial MAPD90” value in series [2] (ranolazine 5-30 μM alone, concentration-dependent, n=7, p<0.01) is 32±4%. Besides, the “effect on IKI” value in series [5] is listed as “no effect”. The “inhibition of the slow component of the delayed rectifier K+ current (IKr)” value in [6] is given as approximately 17%. The “increase in monophasic APD (MAPD) or QT interval” value in series [7] (at therapeutic concentrations) is 2 to 6 ms. Besides, in series [7], the pro-arrhythmic activity result is “not associated with pro-arrhythmic activity”. In series [8] (in the absence of ATX-II), the “effect on MAPD90” value is recorded as “increased”. Further, in series [8] (in the presence of 2 nM ATX-II), the “effect on MAPD” value was “shortened”. Further, the “character of block of IHERG” value in series [9] was “reversible and voltage-dependent, but frequency-independent”. Further, the “time constant for development of block of IHERG” value (“time constant for development” for short) in [9] (10 μM) is 76.6 ± 1.6 ms. Besides, the “time constant for development” value in series [9] (30 μM) was 35.8 ± 2.4 ms. In series [9] (100 μM), the “time constant for development” value stood at 19.4 ± 1.7 ms.

The values are drawn from patent US20080153840A1, “REDUCTION OF CARDIOVASCULAR SYMPTOMS” (priority 2006, published 2008).
